Columns and labels:
[1] = test system: Holstein Friesian cows challenged with S. aureus; experiment: Clinical and productive variables in cows challenged with S. aureus (induced mastitis); assay type: in vivo
S. aureus = experiment: Bacteriological analysis (CFU) in milk of cows challenged with S. aureus; assay type: in vivo, Staphylococcus aureus
Experimental: 1 mL of PBS was inoculated into the right quarters as a control. The NEG group (without therapy) was treated on days 4 and 10 with a 5 mL Ringer Lactate solution via the teat canal in the two infected quarters. The ATB group (antibiotic therapy) was treated with a commercial suspension of 50 mg of pirlimycin on experimental days 4 and 5 via the teat canal in the two infected quarters. The MSC group (MSC therapy) was administered with a 2.5×10^7 suspension of MSC in 3 ml of Lactated Ringer via the teat canal in the two infected quarters. From the day of the challenge and daily during 15 days, the cows were clinically evaluated and milk samples were collected daily to determine SCC and CFU (FIG. 2B). The clinical evaluation and the collection of milk samples were carried out as detailed below.
Milk samples prior to milking were collected aseptically from all cows following the protocols of the International Dairy Federation (1985) on three consecutive days prior to the experimental challenge (FIG. 2B). Briefly, before milking, the quarters and teats were cleaned using a brush or washed with water in case of excessive presence of mud or manure. Then the teats and especially the tips of the teats were disinfected using paper towels with 70% alcohol. Three or four milk streams were discarded to reduce the possibility of contamination with pathogens present in the teat canal. Each of the teats, starting with the most distant ones, were disinfected again using a 70% alcohol swab. Previously labelled sample bottles were positioned at a 45-degree angle below the nipple without touching it to prevent contamination. Nearby teats were first sampled and then distant teats, filling one third of the vial. The samples were refrigerated or frozen for analysis of SCC or CFU, respectively. Only cows with three negative consecutive cultures were used in the study. […]
From the day of the challenge and daily for 15 days, milk samples were collected for determination of CFU. The CFU values were subsequently expressed as a linear score (LS-CFU) by means of logarithmic transformation (LS=LOGN). […]

## CC[C@@H]1CCN[C@H](C(=O)N[C@@H]([C@H]2O[C@H](SC)[C@H](O)[C@@H](O)[C@H]2O)[C@H](C)Cl)C1 [ATB, pirlimycin]
[1]
  average daily milk production: 16.7±0.8 I
  decrease in milk production between days 5 and 7: 2.1
[1]; days 5-7
  Milk yield reduction days 5-7 (Its.): 2.1 Its.
[1]; n=5 each group, mean ± SD
  Milk yield (Its.): 16.7 ± 0.8 Its.
  Rectal temperature (° C.): 38.1 ± 0.3 °C
  Respiratory rate (bpm): 28.6 ± 2.5 bpm
  Ruminal frequency (in 2 min): 2.6 ± 0.3
  Termography BL (° C.): 34.3 ± 0.6 °C
  Termography BR (° C.): 34.2 ± 0.5 °C
  Termography FL (° C.): 33.8 ± 0.7 °C
  Termography FR(° C.): 33.7 ± 0.7 °C
S. aureus; day 3 post-challenge (before treatment on day 4)
  LS-CFU (linear score of CFU in milk): −0.7
S. aureus; day 8 post-challenge
  LS-CFU (linear score of CFU in milk): −0.7
S. aureus; day 9 post-challenge
  LS-CFU (linear score of CFU in milk): −0.7
